Data: US10722501B2 (BAYER AKTIENGESELLSCHAFT, priority 2016, dated 2020)

Molecular target: T1, recombinant full-length human prolyl endopeptidase (PREP) (Homo sapiens, UniProt P48147)
T1 construct: To recombinant full-length human prolyl endopeptidase (PREP, R&D-Systems, 4308-SE); purchased R&D-Systems 4308-SE
T1 sequence (P48147 1-710): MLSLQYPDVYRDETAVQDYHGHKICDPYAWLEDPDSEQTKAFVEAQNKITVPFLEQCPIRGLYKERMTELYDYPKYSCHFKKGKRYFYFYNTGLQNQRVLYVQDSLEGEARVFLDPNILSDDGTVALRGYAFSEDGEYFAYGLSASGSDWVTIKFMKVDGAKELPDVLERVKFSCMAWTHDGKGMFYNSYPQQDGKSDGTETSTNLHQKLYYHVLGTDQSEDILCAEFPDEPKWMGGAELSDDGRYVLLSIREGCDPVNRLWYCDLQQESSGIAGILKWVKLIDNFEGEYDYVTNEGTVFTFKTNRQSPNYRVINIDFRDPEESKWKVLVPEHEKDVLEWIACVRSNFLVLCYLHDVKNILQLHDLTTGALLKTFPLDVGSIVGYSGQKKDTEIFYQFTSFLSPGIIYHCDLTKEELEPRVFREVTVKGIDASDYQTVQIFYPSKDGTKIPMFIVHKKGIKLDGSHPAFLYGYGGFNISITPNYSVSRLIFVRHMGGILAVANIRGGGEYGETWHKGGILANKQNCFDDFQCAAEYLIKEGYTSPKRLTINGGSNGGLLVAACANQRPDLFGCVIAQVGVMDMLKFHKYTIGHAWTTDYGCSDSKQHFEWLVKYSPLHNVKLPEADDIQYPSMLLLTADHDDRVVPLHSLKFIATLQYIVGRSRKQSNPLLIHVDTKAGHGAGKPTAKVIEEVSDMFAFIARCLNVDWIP
Assay: Biochemical human prolyl endopeptidase (PREP) assay with fluorescently labelled substrate
Settings: substrate Z-Gly-Pro-AMC 50 μM, 32° C., 60 min; some as mean values from multiple independent determinations
In short: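 0.4 nM (final, example) recombinant PREP in pH 7.5 Tris buffer with EDTA, GSH, BSA and Brij-35; compounds at 1 nM to 30 μM. Reaction started with 50 μM Z-Gly-Pro-AMC and followed by fluorescence (ex 360/em 465 nm) at 32° C for 60 min. IC50 interpolated from percent activity based on initial slopes.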

Row | Structure (SMILES) | IC50 [nM]
1 | O=C(C1CCc2nn(Cc3ccc(C(F)(F)F)nc3)c(=O)n21)N1CC[C@H](F)C1 (mixture of isomers) [Example 164, (5RS)-5-{[(3S)-3-Fluoropyrrolidin-1-yl]carbonyl}-2-{[6-(trifluoromethyl)pyridin-3-yl]methyl}-2,5,6,7-tetrahydro-3H-pyrrolo[2,1-c][1,2,4]triazol-3-one] | 3.7
2 | O=C([C@@H]1CCc2nn(Cc3ccc(Cl)nc3)c(=O)n21)N1CCCC1 [Example 52, (5S)-2-[(6-Chloropyridin-3-yl)methyl]-5-(pyrrolidin-1-ylcarbonyl)-2,5,6,7-tetrahydro-3H-pyrrolo[2,1-c][1,2,4]triazol-3-one] | 4.6
3 | O=C(C1CCCc2nn(Cc3ccc(OCC(F)(F)F)nc3)c(=O)n21)N1CCCC1 (racemic) [Example 153, (5RS)-5-(Pyrrolidin-1-ylcarbonyl)-2-{[6-(2,2,2-trifluoroethoxy)pyridin-3-yl]methyl}-5,6,7,8-tetrahydro[1,2,4]triazolo[4,3-a]pyridin-3(2H)-one] | 36
4 | Cc1nonc1Cn1nc2n(c1=O)C(C(=O)N1CCCC1)CCC2 (racemic) [Example 60, (5RS)-2-[(4-Methyl-1,2,5-oxadiazol-3-yl)methyl]-5-(pyrrolidin-1-ylcarbonyl)-5,6,7,8-tetrahydro[1,2,4]triazolo[4,3-a]pyridin-3(2H)-one] | 18.5
5 | COc1ccc(Cn2nc3n(c2=O)C(C(=O)N2CCCC2)CCC3)cc1 (racemic) [Example 36, (5RS)-2-(4-Methoxybenzyl)-5-(pyrrolidin-1-ylcarbonyl)-5,6,7,8-tetrahydro[1,2,4]triazolo[4,3-a]pyridin-3(2H)-one] | 3.65
6 | Cn1ncc2cc(Cn3nc4n(c3=O)C(C(=O)N3CCCC3)CCC4)ccc21 (racemic) [Example 64, (5RS)-2-[(1-Methyl-1H-indazol-5-yl)methyl]-5-(pyrrolidin-1-ylcarbonyl)-5,6,7,8-tetrahydro[1,2,4]triazolo[4,3-a]pyridin-3(2H)-one] | 0.94
7 | O=C(C1CCCc2nn(Cc3ncc(C(F)(F)F)cc3Cl)c(=O)n21)N1CCCC1 (racemic) [Example 68, (5RS)-2-{[3-Chloro-5-(trifluoromethyl)pyridin-2-yl]methyl}-5-(pyrrolidin-1-ylcarbonyl)-5,6,7,8-tetrahydro[1,2,4]triazolo[4,3-a]pyridin-3(2H)-one] | 3.9
8 | Cc1ccc(Cn2nc3n(c2=O)[C@H](C(=O)N2CC[C@H](F)C2)CCC3)cc1 [Example 110, (5S)-5-{[(3S)-3-Fluoropyrrolidin-1-yl]carbonyl}-2-(4-methylbenzyl)-5,6,7,8-tetrahydro[1,2,4]triazolo[4,3-a]pyridin-3(2H)-one] | 0.32
9 | O=C([C@@H]1CCCc2nn(Cc3ccnc(C(F)(F)F)c3)c(=O)n21)N1CCCC1 [Example 74, (5S)-5-(Pyrrolidin-1-ylcarbonyl)-2-{[2-(trifluoromethyl)pyridin-4-yl]methyl}-5,6,7,8-tetrahydro[1,2,4]triazolo[4,3-a]pyridin-3(2H)-one] | 4.75
10 | Cc1ccc(Cn2nc3n(c2=O)C(C(=O)N2CCC4CC42)CCC3)cc1 (racemic) [Example 144, (5S)-5-[(cis)-2-Azabicyclo[3.1.0]hex-2-ylcarbonyl]-2-(4-methylbenzyl)-5,6,7,8-tetrahydro[1,2,4]triazolo[4,3-a]pyridin-3(2H)-one] | 1.7
11 | Cc1ccc(Cn2nc3n(c2=O)[C@H](C(=O)N2CC(C)C2)CCC3)cc1 [Example 192, (5S)-5-[(3-Methylazetidin-1-yl)carbonyl]-2-(4-methylbenzyl)-5,6,7,8-tetrahydro[1,2,4]triazolo[4,3-a]pyridin-3(2H)-one] | 0.32
12 | Cc1ccc(Cn2nc3n(c2=O)C(C(=O)N2CC(F)C2)CCC3)cc1 (racemic) [Example 112, (5RS)-5-[(3-Fluoroazetidin-1-yl)carbonyl]-2-(4-methylbenzyl)-5,6,7,8-tetrahydro[1,2,4]triazolo[4,3-a]pyridin-3(2H)-one] | 1.59

Second part, the compound after the results:

Row | IC50 [nM] | Structure (SMILES)
13 | 1.3 | Cc1ccc(C2(Cn3nc4n(c3=O)[C@H](C(=O)N3CC(F)C3)CCC4)CC2)cc1 [Example 355, (5S)-5-[(3-Fluoroazetidin-1-yl)carbonyl]-2-{[1-(4-methylphenyl)cyclopropyl]methyl}-5,6,7,8-tetrahydro[1,2,4]triazolo[4,3-a]pyridin-3(2H)-one]
14 | 400 | O=C(C1CC(C(F)(F)F)Cc2nn(Cc3ccc(Cl)nc3)c(=O)n21)N1CCC(F)(F)C1 (single isomer, unassigned) [Example 232, (5RS,7RS)-2-[(6-Chloropyridin-3-yl)methyl]-5-[(3,3-difluoropyrrolidin-1-yl)carbonyl]-7-(trifluoromethyl)-5,6,7,8-tetrahydro[1,2,4]triazolo[4,3-a]pyridin-3(2H)-one]
15 | 2.24 | O=C([C@@H]1CCCc2nn(Cc3cc4cccnc4nc3C(F)(F)F)c(=O)n21)N1CCC(F)(F)C1 [Example 418, (5S)-5-[(3,3-Difluoropyrrolidin-1-yl)carbonyl]-2-{[2-(trifluoromethyl)-1,8-naphthyridin-3-yl]methyl}-5,6,7,8-tetrahydro[1,2,4]triazolo[4,3-a]pyridin-3(2H)-one]
16 | 4.2 | O=C([C@@H]1CCCc2nn(Cc3ccc(C(F)F)nc3)c(=O)n21)N1C[C@@H](F)[C@@H](F)C1 [Example 207, (5S)-2-{[6-(Difluoromethyl)pyridin-3-yl]methyl}-5-{[(3R,4S)-3,4-difluoropyrrolidin-1-yl]carbonyl}-5,6,7,8-tetrahydro[1,2,4]triazolo[4,3-a]pyridin-3(2H)-one]
17 | 50 | O=C(C1CC(C(F)(F)F)Cc2nn(Cc3ccc(C(F)(F)F)nc3)c(=O)n21)N1CC(F)C(F)C1 (single isomer, unassigned) [Example 584]
18 | 16 | O=C(C1C(C(F)(F)F)CCc2nn(Cc3ncc(Cl)cc3Cl)c(=O)n21)N1C[C@@H](F)[C@@H](F)C1 (single isomer, unassigned) [Example 288]
19 | 4.9 | CC1CCC(C(=O)N2CCC(F)(F)C2)n2c1nn(Cc1ccc(C(F)(F)F)nc1)c2=O (racemic) [Example 330, (5RS,8RS)-5-[(3,3-Difluoropyrrolidin-1-yl)carbonyl]-8-methyl-2-{[6-(trifluoromethyl)pyridin-3-yl]methyl}-5,6,7,8-tetrahydro[1,2,4]triazolo[4,3-a]pyridin-3(2H)-one]
20 | 35 | O=C([C@@H]1CCCc2nn(Cc3ccc(C(F)(F)F)nc3)c(=O)n21)N1CC[C@H](O)C1 [Example 425, (5S)-5-{[(3S)-3-Hydroxypyrrolidin-1-yl]carbonyl}-2-{[6-(trifluoromethyl)pyridin-3-yl]methyl}-5,6,7,8-tetrahydro[1,2,4]triazolo[4,3-a]pyridin-3(2H)-one]
21 | 1.7 | O=C([C@@H]1CCCc2nn(CCc3ccc(F)cc3)c(=O)n21)N1CC(F)C1 [Example 520, (5S)-5-[(3-Fluoroazetidin-1-yl)carbonyl]-2-[2-(4-fluorophenyl)ethyl]-5,6,7,8-tetrahydro[1,2,4]triazolo[4,3-a]pyridin-3(2H)-one]
22 | 2.2 | O=C([C@@H]1CCCc2nn(Cc3cncc(Cl)c3)c(=O)n21)N1C[C@@H](F)[C@@H](F)C1 [Example 439, (5S)-2-[(5-Chloropyridin-3-yl)methyl]-5-{[(3R,4S)-3,4-difluoropyrrolidin-1-yl]carbonyl}-5,6,7,8-tetrahydro[1,2,4]triazolo[4,3-a]pyridin-3(2H)-one]
23 | 2 | O=C(C1CCC(C(F)(F)F)c2nn(Cc3ccc(C(F)(F)F)nc3)c(=O)n21)N1C[C@@H](F)[C@@H](F)C1 (mixture of isomers) [Example 270, (5RS,8RS)-5-{[(3R,4S)-3,4-Difluoropyrrolidin-1-yl]carbonyl}-8-(trifluoromethyl)-2-{[6-(trifluoromethyl)pyridin-3-yl]methyl}-5,6,7,8-tetrahydro[1,2,4]triazolo[4,3-a]pyridin-3(2H)-one]
24 | 0.595 | O=C(C1CC(C(F)(F)F)Cc2nn(Cc3ccnc(C(F)(F)F)c3F)c(=O)n21)N1CC[C@H](F)C1 (single isomer, unassigned) [Example 257]
25 | 0.95 | Cc1ccc(C(F)(F)Cn2nc3n(c2=O)[C@H](C(=O)N2CC[C@H](F)C2)CCC3)cc1 [Example 517, (5S)-2-[2,2-Difluoro-2-(4-methylphenyl)ethyl]-5-{[(3S)-3-fluoropyrrolidin-1-yl]carbonyl}-5,6,7,8-tetrahydro[1,2,4]triazolo[4,3-a]pyridin-3(2H)-one]
26 | 4.3 | CC1CCC(C(=O)N2CC(F)C2)n2c1nn(Cc1ccc(F)cc1F)c2=O (racemic) [Example 329, (5RS,8RS)-2-(2,4-Difluorobenzyl)-5-[(3-fluoroazetidin-1-yl)carbonyl]-8-methyl-5,6,7,8-tetrahydro[1,2,4]triazolo[4,3-a]pyridin-3(2H)-one]
